The test system of one assay is ETBR. The assay can be described thus: Plasma ET-1 ELISA after IV infusion, indirect measure of ETBR engagement. Type of assay: in vivo. As to conditions: rats, 250 μg/kg IV infusion. The procedure: Briefly, rats (N=4 animals per timepoint) were administered either BQ-788 or the deuterated form, BQ-788-B at a dose of 250 μg/kg via IV infusion. Plasma samples were collected at various time points and ET-1 ELISA performed. BQ788 and BQ788-B are peptide drugs that are rapidly degraded in plasma and thus drug levels are difficult to detect directly. […] As such, plasma levels of ET-1 are commonly used as an indirect measure of BQ-788 biologic activity.

In another assay the target is T1, ETA (h) (Homo sapiens, UniProt P25101).
T1 sequence (P25101 21-427): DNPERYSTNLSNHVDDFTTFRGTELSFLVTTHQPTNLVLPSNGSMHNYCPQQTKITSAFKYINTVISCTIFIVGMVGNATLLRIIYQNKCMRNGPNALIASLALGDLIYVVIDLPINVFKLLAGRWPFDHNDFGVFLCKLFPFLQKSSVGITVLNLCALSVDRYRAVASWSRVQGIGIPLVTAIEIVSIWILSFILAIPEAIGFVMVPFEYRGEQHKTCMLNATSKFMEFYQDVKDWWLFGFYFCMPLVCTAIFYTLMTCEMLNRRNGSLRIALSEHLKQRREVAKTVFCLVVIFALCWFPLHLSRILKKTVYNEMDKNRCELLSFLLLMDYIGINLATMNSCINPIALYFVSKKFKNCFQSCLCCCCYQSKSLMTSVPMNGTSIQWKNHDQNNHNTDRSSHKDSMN
Kind of assay: ETA (h) cellular antagonist effect. The class given is cell-based. How it is done:
FIGS. 5A and 5B show determination of ETA (h) inhibitory effect for A) BQ-788 and B) BQ-788-B, a specifically deuterated ETRB antagonist. Cellular agonist effect was calculated as a % of control response to a known reference agonist for ETA (h), and cellular antagonist effect was calculated as a % inhibition of control reference agonist response for ETA.
Cellular agonist effect was calculated as a % of control response to a known reference agonist for ETA (h), and cellular antagonist effect was calculated as a % inhibition of control reference agonist response for ETA.

The next assay deals with T2, ETB (h) (Homo sapiens, UniProt P24530).
T2 sequence (P24530 27-442): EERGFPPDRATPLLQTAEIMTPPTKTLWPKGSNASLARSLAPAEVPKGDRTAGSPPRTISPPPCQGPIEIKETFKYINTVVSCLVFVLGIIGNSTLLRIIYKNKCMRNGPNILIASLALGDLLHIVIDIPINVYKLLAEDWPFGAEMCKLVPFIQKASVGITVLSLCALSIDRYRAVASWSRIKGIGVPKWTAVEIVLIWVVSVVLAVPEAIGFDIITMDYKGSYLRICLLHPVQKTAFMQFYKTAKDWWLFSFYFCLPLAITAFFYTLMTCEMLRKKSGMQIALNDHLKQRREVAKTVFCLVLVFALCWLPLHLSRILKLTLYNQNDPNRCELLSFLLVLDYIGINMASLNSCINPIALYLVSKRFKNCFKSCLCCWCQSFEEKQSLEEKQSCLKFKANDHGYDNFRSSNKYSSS
Kind of assay: ETB (h) cellular antagonist effect. Type of assay: cell-based. The procedure: Cellular agonist effect was calculated as a % of control response to a known reference agonist for ETB (h), and cellular antagonist effect was calculated as a % inhibition of control reference agonist response for ETB.
Determination of ETBR inhibitory effect for specifically deuterated ETRB antagonists. […] Cellular agonist effect was calculated as a % of control response to a known reference agonist for ETB (h), and cellular antagonist effect was calculated as a % inhibition of control reference agonist response for ETB.

A further assay has as its target T3, CXCR4 (h) (Homo sapiens, UniProt P61073).
T3 construct: expressed in transfected cells; host or cells: CHO cells
Kind of assay: CXCR4 (h) cellular antagonist effect, impedance by dielectric spectroscopy, stimulated with 1 nM SDF-1α. The class given is cell-based. As to conditions: recombinant human CXCR4 in CHO cells, 28° C. How it is done: FIGS. 4A and 4B show determination of CXCR4 (h) inhibitory effect for, A) BQ-788 and B) BQ-788-B, a specifically deuterated ETRB antagonist (i.e., “Compound 1”). Cellular agonist effect was calculated as a % of control response to a known reference agonist for CXCR4 (h), and cellular antagonist effect was calculated as a % inhibition of control reference agonist response for CXCR4.
Determination of CXCR4 inhibitory effect. The inhibitory effect on CXCR4 (h) was determined for BQ-788 (FIG. 4A), and BQ-788 (FIG. 4B) BQ-788-B (i.e., “Compound 1”). Cellular agonist effect was calculated as a % of control response to a known reference agonist for CXCR4 (h), and cellular antagonist effect was calculated as a % inhibition of control reference agonist response for CXCR4. Recombinant human CXCR4 was expressed in CHO cells, and stimulated with 1 nM SDF-1α and incubated at 28° C. Dielectric spectroscopy was used to measure impedance of the cells.

Entries after “also recorded” stand apart in the source; their conditions may differ. A value given as a limit tells only on which side of the number the result lay.

T3 sequence (P61073 whole entry): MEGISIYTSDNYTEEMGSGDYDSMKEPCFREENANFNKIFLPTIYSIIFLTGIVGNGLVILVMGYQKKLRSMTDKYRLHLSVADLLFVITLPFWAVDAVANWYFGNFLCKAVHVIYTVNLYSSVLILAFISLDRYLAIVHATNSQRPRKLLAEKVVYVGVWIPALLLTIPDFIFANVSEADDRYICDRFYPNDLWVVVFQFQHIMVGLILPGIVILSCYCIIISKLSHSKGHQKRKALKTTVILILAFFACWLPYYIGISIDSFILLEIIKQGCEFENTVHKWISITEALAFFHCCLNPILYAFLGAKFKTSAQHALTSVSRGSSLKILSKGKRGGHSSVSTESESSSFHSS

For the compound `[2H]C[C@@H]1CCC[C@H](C[2H])N1C(=O)N[C@@H](CC(C)(C)C)C(=O)N[C@H](Cc1cn(C(=O)OC)c2ccccc12)C(=O)N[C@H](CCCC)C(=O)O` [BQ-788-B], the “plasma ET-1 response: prolonged peak out to” value in the assay with ETBR (ET-1 ELISA) is “about 3 hours”. Besides, the “biologic activity in vivo by plasma ET-1 (duration and amplitude of response)” value in the assay with ETBR (compared with non-deuterated BQ-788) was “enhanced duration and amplitude of response relative to the undeuterated form; also recorded: enhanced biological activity relative to BQ-788”. For the same compound, on ETA (h), the “IC50, inhibition of control reference agonist response for ETA (h)” value is “not calculable”. Also, on ETB (h) (read-out: IC50, inhibition of control reference agonist response for ETB (h)), the IC50 was found to be 0.096 µM. In addition, at CXCR4 (h), the “IC50, inhibition of control reference agonist response for CXCR4 (h)” value is recorded as “not calculable”.
`CCCC[C@@H](NC(=O)[C@@H](Cc1cn(C(=O)OC)c2ccccc12)NC(=O)[C@H](CC(C)(C)C)NC(=O)N1[C@H](C)CCC[C@@H]1C)C(=O)O` [BQ-788]: on ETA (h), the “IC50, inhibition of control reference agonist response for ETA (h)” value was “not calculable”. Moreover, the affinity on ETB (h), expressed as Kd, was 0.013 µM. At CXCR4 (h) (read-out: IC50, inhibition of control reference agonist response for CXCR4 (h)), the half-maximal inhibitory concentration (IC50) is greater than 1 µM.

As a reminder, the IC50 is the concentration that gives 50% inhibition. The Kd is the free concentration of one partner at which half of the binding sites on the other are occupied at equilibrium, for simple one-to-one binding. Read a low Kd as higher affinity.
